Results on 8 compounds are retold here after PubChem BioAssay AID1259407 (Chemical Carcinogenesis Research Information System (CCRIS), 2018).

SMILES strings stand for the structures. Activity calls are given as the source filed them. The rule behind the calls is not given here.

The series relates to CCRIS mutagenicity, Ames/micronucleus/aberration tests. The series can be described thus: CCRIS mutagenicity studies.
Setting [1] is: Test System: AMES SALMONELLA TYPHIMURIUM, Strain/Indicator: TA98, Metabolic Activation: HAMSTER, LIVER, S-9, AROCLOR 1254 (10%), Method: PREINCUBATION
Where [2] appears, read: Test System: AMES SALMONELLA TYPHIMURIUM, Strain/Indicator: TA98, Metabolic Activation: NONE, Method: PREINCUBATION
[3] abbreviates: Test System: AMES SALMONELLA TYPHIMURIUM, Strain/Indicator: TA98, Metabolic Activation: RAT, LIVER, S-9, AROCLOR 1254 (10%), Method: PREINCUBATION
Where [4] appears, read: Test System: AMES SALMONELLA TYPHIMURIUM, Strain/Indicator: TA100, Metabolic Activation: HAMSTER, LIVER, S-9, AROCLOR 1254 (10%), Method: PREINCUBATION
Setting [5] is: Test System: AMES SALMONELLA TYPHIMURIUM, Strain/Indicator: TA100, Metabolic Activation: NONE, Method: PREINCUBATION
[6] abbreviates: Test System: AMES SALMONELLA TYPHIMURIUM, Strain/Indicator: TA100, Metabolic Activation: RAT, LIVER, S-9, AROCLOR 1254 (10%), Method: PREINCUBATION
Where [7] appears, read: Test System: AMES SALMONELLA TYPHIMURIUM, Strain/Indicator: TA1535, Metabolic Activation: HAMSTER, LIVER, S-9, AROCLOR 1254 (10%), Method: PREINCUBATION
Where [8] appears, read: Test System: AMES SALMONELLA TYPHIMURIUM, Strain/Indicator: TA1535, Metabolic Activation: NONE, Method: PREINCUBATION
Setting [9] is: Test System: AMES SALMONELLA TYPHIMURIUM, Strain/Indicator: TA1535, Metabolic Activation: RAT, LIVER, S-9, AROCLOR 1254 (10%), Method: PREINCUBATION
Setting [10] is: Test System: AMES SALMONELLA TYPHIMURIUM, Strain/Indicator: TA1537, Metabolic Activation: HAMSTER, LIVER, S-9, AROCLOR 1254 (10%), Method: PREINCUBATION
[11] abbreviates: Test System: AMES SALMONELLA TYPHIMURIUM, Strain/Indicator: TA1537, Metabolic Activation: NONE, Method: PREINCUBATION
[12] abbreviates: Test System: AMES SALMONELLA TYPHIMURIUM, Strain/Indicator: TA1537, Metabolic Activation: RAT, LIVER, S-9, AROCLOR 1254 (10%), Method: PREINCUBATION
The mark [13] stands for this setting: Test System: AMES SALMONELLA TYPHIMURIUM, Strain/Indicator: TA98, Metabolic Activation: NONE, Method: STANDARD PLATE.
Where [14] appears, read: Test System: AMES SALMONELLA TYPHIMURIUM, Strain/Indicator: TA100, Metabolic Activation: NONE, Method: STANDARD PLATE.

`c1ccsc1`: the mutagenic call reads like this: (Test System: AMES SALMONELLA TYPHIMURIUM, Strain/Indicator: TA97, Metabolic Activation: HAMSTER, LIVER, AROCLOR 1254 (10%), Method: PREINCUBATION) “inactive; negative”; (Test System: AMES SALMONELLA TYPHIMURIUM, Strain/Indicator: TA97, Metabolic Activation: HAMSTER, LIVER, S-9, AROCLOR 1254 (30%), Method: PREINCUBATION) “inactive; negative”; (Test System: AMES SALMONELLA TYPHIMURIUM, Strain/Indicator: TA97, Metabolic Activation: NONE, Method: PREINCUBATION) “inactive; negative”; (Test System: AMES SALMONELLA TYPHIMURIUM, Strain/Indicator: TA97, Metabolic Activation: RAT, LIVER, S-9, AROCLOR 1254 (10%), Method: PREINCUBATION) “inactive; negative”; (Test System: AMES SALMONELLA TYPHIMURIUM, Strain/Indicator: TA97, Metabolic Activation: RAT, LIVER, S-9, AROCLOR 1254 (30%), Method: PREINCUBATION) “inactive; negative”; under setting [1], “inactive; negative”. Also, the mutagenic call is “inactive; negative” (Test System: AMES SALMONELLA TYPHIMURIUM, Strain/Indicator: TA98, Metabolic Activation: HAMSTER, LIVER, S-9, AROCLOR 1254 (30%), Method: PREINCUBATION); “inactive; negative” under setting [2]; “inactive; negative” under setting [3]; “inactive; negative” (Test System: AMES SALMONELLA TYPHIMURIUM, Strain/Indicator: TA98, Metabolic Activation: RAT, LIVER, S-9, AROCLOR 1254 (30%), Method: PREINCUBATION); “inactive; negative” (Test System: AMES SALMONELLA TYPHIMURIUM, Strain/Indicator: TA98, Metabolic Activation: RAT, LIVER, S-9, AROCLOR 1254, Method: PREINCUBATION); “inactive; negative” under setting [4]. Also, the mutagenic call is “inactive; negative” (Test System: AMES SALMONELLA TYPHIMURIUM, Strain/Indicator: TA100, Metabolic Activation: HAMSTER, LIVER, S-9, AROCLOR 1254 (30%), Method: PREINCUBATION); “inactive; negative” under setting [5]; “inactive; negative” under setting [6]; “inactive; negative” (Test System: AMES SALMONELLA TYPHIMURIUM, Strain/Indicator: TA100, Metabolic Activation: RAT, LIVER, S-9, AROCLOR 1254 (30%), Method: PREINCUBATION); “inactive; negative” (Test System: AMES SALMONELLA TYPHIMURIUM, Strain/Indicator: TA100, Metabolic Activation: RAT, LIVER, S-9, AROCLOR 1254, Method: PREINCUBATION); “inactive; negative” (Test System: AMES SALMONELLA TYPHIMURIUM, Strain/Indicator: TA102, Metabolic Activation: NONE, Method: PREINCUBATION). For the same compound, the mutagenic call was “inactive; negative” (Test System: AMES SALMONELLA TYPHIMURIUM, Strain/Indicator: TA102, Metabolic Activation: RAT, LIVER, S-9, AROCLOR 1254, Method: PREINCUBATION); “inactive; negative” under setting [7]; “inactive; negative” (Test System: AMES SALMONELLA TYPHIMURIUM, Strain/Indicator: TA1535, Metabolic Activation: HAMSTER, LIVER, S-9, AROCLOR 1254 (30%), Method: PREINCUBATION); “inactive; negative” under setting [8]; “inactive; negative” under setting [9]; “inactive; negative” (Test System: AMES SALMONELLA TYPHIMURIUM, Strain/Indicator: TA1535, Metabolic Activation: RAT, LIVER, S-9, AROCLOR 1254 (30%), Method: PREINCUBATION). The mutagenic call is “inactive; negative” under setting [10]; “inactive; negative” under setting [11]; “inactive; negative” under setting [12]; “active; positive” (Test System: Mouse lymphoma, Strain/Indicator: L5178Y (tk+/tk-), Metabolic Activation: None, Method: Suspension/plate); “active; inconclusive (previous evaluation positive)” (Test System: Mouse lymphoma, Strain/Indicator: L5178Y (tk+/tk-), Metabolic Activation: Rat, Liver, S-9, Aroclor 1254, Method: Suspension/plate).

Take `O=[N+]([O-])c1c(Cl)cc2c(c1Cl)Oc1cc(Cl)c(Cl)cc1O2`: the mutagenic call runs as follows: under setting [13], “inactive; negative”; (Test System: AMES SALMONELLA TYPHIMURIUM, Strain/Indicator: TA98, Metabolic Activation: RAT, LIVER, S-9, AROCLOR, Method: STANDARD PLATE) “inactive; negative”; under setting [14], “inactive; negative”; (Test System: AMES SALMONELLA TYPHIMURIUM, Strain/Indicator: TA100, Metabolic Activation: RAT, LIVER, S-9, AROCLOR, Method: STANDARD PLATE) “inactive; negative”.

Turning to `CC1C=Cc2ccc3ccc4ccccc4c3c21` (stereo not drawn), under “Test System: AMES SALMONELLA TYPHIMURIUM, Strain/Indicator: TA100, Metabolic Activation: RAT, LIVER, S-9, AROCLOR 1254, Method: STANDARD PLATE”, the mutagenic call is “inactive; negative”.

With `CC(=O)N=c1sn(C(C)=O)c2ccc([N+](=O)[O-])cc12`, the mutagenic call (Test System: AMES SALMONELLA TYPHIMURIUM, Strain/Indicator: TA100, Metabolic Activation: S-9, Method: STANDARD PLATE) was “active; positive”.

Consider `CC(C)CCCCCCCOC(=O)c1ccccc1C(=O)OCCCCCCCC(C)C`, for which the mutagenic call is “inactive; negative” under setting [1]; “inactive; negative” under setting [2]; “inactive; negative” under setting [3]; “inactive; negative” under setting [4]; “inactive; negative” under setting [5]; “inactive; negative” under setting [6]. Also, the mutagenic call runs as follows: under setting [7], “inactive; negative”; under setting [8], “inactive; negative”; under setting [9], “inactive; negative”; under setting [10], “inactive; negative”; under setting [11], “inactive; negative”; under setting [12], “inactive; negative”. Also, the mutagenic call (Test System: MOUSE LYMPHOMA, Strain/Indicator: L5178Y (TK+/TK-), Metabolic Activation: NONE, Method: SUSPENSION/PLATE) is “inactive; negative” and the mutagenic call (Test System: MOUSE LYMPHOMA, Strain/Indicator: L5178Y (TK+/TK-), Metabolic Activation: RAT LIVER S-9, Method: SUSPENSION/PLATE) was “inactive; negative”.

Consider `C=CCCCCCCCC`, for which the mutagenic call (Test System: AMES SALMONELLA TYPHIMURIUM, Strain/Indicator: TA98, Metabolic Activation: MOUSE, LIVER, S-9, Method: STANDARD PLATE) was “inactive; negative”; the mutagenic call under setting [13] is “inactive; negative”; the mutagenic call (Test System: AMES SALMONELLA TYPHIMURIUM, Strain/Indicator: TA100, Metabolic Activation: MOUSE, LIVER, S-9, Method: STANDARD PLATE) is “inactive; negative”; the mutagenic call under setting [14] was “inactive; negative”; the mutagenic call (Test System: AMES SALMONELLA TYPHIMURIUM, Strain/Indicator: TA1535, Metabolic Activation: NONE, Method: STANDARD PLATE) was “inactive; negative”; the mutagenic call (Test System: AMES SALMONELLA TYPHIMURIUM, Strain/Indicator: TA1538, Metabolic Activation: NONE, Method: STANDARD PLATE) is “inactive; negative”.

With `CN(C)CCNC(=O)c1cccc2cc(-c3ccccc3)oc12`, the mutagenic call (Test System: AMES SALMONELLA TYPHIMURIUM, Strain/Indicator: TA1537, Metabolic Activation: NONE, Method: STANDARD PLATE) is “active; positive”.

Consider `OCc1cc2cccc3ccc4cc5ccccc5c1c4c32`, for which the mutagenic call under setting [13] is “inactive; negative” and the mutagenic call under setting [14] is “inactive; negative”.
